Data from patent publication US12370235B2, “Synthetic, non-natural antimicrobial peptides inspired by Staphylococcus auricularis delta toxin” (University of Saskatchewan, priority 2021, dated 2025).
Ends that are not written are not given here.

Assays:
[1] = test system: Mannheimia haemolytica ATCC 33393; assay: MIC, broth dilution; format: cell-based; conditions: Table 11; highest concentration 25 μg/mL
Method in brief: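 Read-out is the lowest peptide concentration showing no growth after an overnight standing culture at 37 °C. Two-fold serial dilutions of 95%-pure peptide were tested against M. haemolytica ATCC 33393 at OD 6×10^−4 in cation-adjusted MH broth.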

C. albicans Y537 = assay: MIC, YPD broth; format: cell-based, Candida albicans; conditions: Table 8
C. albicans MYA-2876 = assay: MIC, YPD broth; format: cell-based, Candida albicans; conditions: Table 8
Method in brief: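 Yeast cells were diluted in YPD broth, and 180 μl aliquots were mixed with 20 μl of peptide from 2-fold serial dilutions in flat-bottom 96-well microtitre plates. Wells receiving 20 μl sterile water served as controls. After standing incubation overnight at 37° C, the MIC was taken as the lowest peptide concentration with no visible microbial growth.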

[2] = test system: S. aureus ATCC BAA-2313 (MRSA SCCmec type XI); assay: MIC, broth dilution; format: cell-based, Staphylococcus aureus; conditions: Table 5; STIP3 variants, highest concentration 100 μg/mL
Method in brief: (§1)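 MIC defined as the lowest peptide level giving no growth after overnight standing incubation at 37° C. Bacteria at OD 6×10^−4 in cation-adjusted MH broth met 2-fold serial peptide dilutions; peptide purity 95%.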

[3] = test system: S. aureus ATCC BAA-41 (MRSA SCCmec type II); assay: MIC, broth dilution; format: cell-based, Staphylococcus aureus; conditions: Table 5; STIP3 variants, highest concentration 100 μg/mL
Method in brief: as §1

[4] = test system: S. aureus ATCC BAA-2094 (MRSA SCCmec type V); assay: MIC, broth dilution; format: cell-based, Staphylococcus aureus; conditions: Table 5; STIP3 variants, highest concentration 100 μg/mL
Method in brief: as §1

[5] = test system: S. aureus ATCC BAA-44 (MRSA SCCmec type I); assay: MIC, broth dilution; format: cell-based, Staphylococcus aureus; conditions: Table 5; STIP3 variants, highest concentration 100 μg/mL
Method in brief: as §1

[6] = test system: S. aureus ATCC 33592 (MRSA SCCmec type III); assay: MIC, broth dilution; format: cell-based, Staphylococcus aureus; conditions: Table 5; STIP3 variants, highest concentration 100 μg/mL
Method in brief: as §1

S. aureus ATCC 29213 = assay: MIC, broth dilution; format: cell-based, Staphylococcus aureus; conditions: Table 5; STIP3 variants, highest concentration 100 μg/mL
Method in brief: as §1

[7] = test system: S. aureus ATCC BAA-1683 (MRSA SCCmec type IV); assay: MIC, broth dilution; format: cell-based, Staphylococcus aureus; conditions: Table 5; STIP3 variants, highest concentration 100 μg/mL
Method in brief: as §1

[8] = test system: S. aureus ATCC BAA-42 (MRSA SCCmec type VI); assay: MIC, broth dilution; format: cell-based, Staphylococcus aureus; conditions: Table 5; STIP3 variants, highest concentration 100 μg/mL
Method in brief: as §1

[9] = test system: Candida haemulonii AR 395; assay: MIC, YPD broth, CDC and FDA AR Candida isolate panel; format: cell-based; conditions: Table 9 below the line: only 200 or 100 μg/mL tested; values reported as 100 are ≤100 μg/mL
Method in brief: (§2)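 Growth inhibition by peptides (95% pure) is scored after standing overnight incubation at 37° C. Cells at an optical density of […] are exposed to a doubling dilution series of peptide.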

[10] = test system: Saccharomyces cerevisiae AR 399; assay: as above; format: cell-based
Method in brief: as §2

[11] = test system: Candida duobushaemulonii AR 394; assay: as above; format: cell-based
Method in brief: as §2

[12] = test system: Saccharomyces cerevisiae AR 400; assay: as above; format: cell-based
Method in brief: as §2

[13] = test system: Candida lusitaniae AR 398; assay: as above; format: cell-based
Method in brief: as §2

[14] = test system: Candida duobushaemulonii AR 392; assay: as above; format: cell-based
Method in brief: as §2

[15] = test system: Candida duobushaemulonii AR 391; assay: as above; format: cell-based
Method in brief: as §2

Kodamae ohmeri AR 396 = assay: as above; format: cell-based
Method in brief: as §2

[16] = test system: Candida haemulonii AR 393; assay: as above; format: cell-based; conditions: Table 9 below the line: only 200 or 100 μg/mL tested; values reported as 100 are ≤100 μg/mL
Method in brief: as §2

Candida krusei AR 397 = assay: as above; format: cell-based
Method in brief: as §2

[17] = Table 9 below the line: only 200 or 100 μg/mL tested, values reported as 100 are ≤100 μg/mL
[18] = Table 9 top part: titrations from 1.56 to 100 μg/mL

Substance | MIC (μg/mL) M. haemolytica [1] [µg/mL] | MIC C. albicans Y537 (C. albicans Y537) | MIC C. albicans MYA-2876 (C. albicans MYA-2876) | MIC S. aureus ATCC BAA 2313 (XI) [2] [µg/mL] | MIC S. aureus ATCC BAA 41 (II) [3] [µg/mL] | MIC S. aureus ATCC BAA 2094 (V) [4] [µg/mL] | MIC S. aureus ATCC BAA 44 (I) [5] [µg/mL] | MIC S. aureus ATCC 33592 (III) [6] [µg/mL] | MIC S. aureus ATCC 29213 (S. aureus ATCC 29213) [µg/mL] | MIC S. aureus ATCC BAA 1683 (IV) [7] [µg/mL] | MIC S. aureus ATCC BAA 42 (VI) [8] [µg/mL] | MIC (μg/mL) Candida haemulonii AR 395 [9] | MIC (μg/mL) Saccharomyces cerevisiae AR 399 [10, 17] [µg/mL] | MIC (μg/mL) Candida duobushaemulonii AR 394 [11, 17] | MIC (μg/mL) Saccharomyces cerevisiae AR 400 [12, 17] [µg/mL] | MIC (μg/mL) Candida lusitaniae AR 398 [13, 17] [µg/mL] | MIC (μg/mL) Candida duobushaemulonii AR 392 [14, 17] | MIC (μg/mL) Candida duobushaemulonii AR 391 [15, 17] | MIC (μg/mL) Kodamae ohmeri AR 396 (Kodamae ohmeri AR 396; [17]) [µg/mL] | MIC (μg/mL) Candida haemulonii AR 393 [16] | also measured
TVGGLVKWILDTVKKFA-NH2 [STIP3-27, TVGGLVKWILDTVKKFA-NH2] | 25 | 50 µg/mL | 25 µg/mL | 50 | 25 | 25 | 25 | 50 | 50 | 25 | 25 | > (values below the line were determined using two concentrations of peptide 200 or 100 μg/mL) | ≤ 100 | > (values below the line were determined using two concentrations of peptide 200 or 100 μg/mL) | ≤ 100 | ≤ 100 | > (values below the line were determined using two concentrations of peptide 200 or 100 μg/mL) | > (values below the line were determined using two concentrations of peptide 200 or 100 μg/mL) | ≤ 100 | > (values below the line were determined using two concentrations of peptide 200 or 100 μg/mL) | MIC (μg/mL) Candida krusei AR 397 (Candida krusei AR 397; [17]): ≤ 100 µg/mL
TVGGLVKWILKTVKKFA [STIP3-3, TVGGLVKWILKTVKKFA] | 12.5 | 50 µg/mL | 25 µg/mL | 50 | 25 | 25 | 25 | 25 | 25 | 50 | 50 | > (values below the line were determined using two concentrations of peptide 200 or 100 μg/mL) | ≤ 100 | > (values below the line were determined using two concentrations of peptide 200 or 100 μg/mL) | ≤ 100 | ≤ 100 | > (values below the line were determined using two concentrations of peptide 200 or 100 μg/mL) | ≤ 100 µg/mL | ≤ 100 | > (values below the line were determined using two concentrations of peptide 200 or 100 μg/mL) | MIC (μg/mL) Candida krusei AR 397 (Candida krusei AR 397; [17]): ≤ 100 µg/mL
TVKALVKWILKTVAKFA [STIP3-19, TVKALVKWILKTVAKFA] | 12.5 | > (> symbol indicates that no inhibition was observed at the highest concentration of peptide tested: 100 μg/mL) | > (> symbol indicates that no inhibition was observed at the highest concentration of peptide tested: 100 μg/mL) | 25 | 50 | 25 | 25 | 25 | 50 | 25 | 50 | – | – | – | – | – | – | – | – | – | MIC (μg/mL) Saccharomyces cerevisiae AR 399 [10, 18]: 100 µg/mL; MIC (μg/mL) Candida duobushaemulonii AR 394 [11, 18]: 100 µg/mL; MIC (μg/mL) Saccharomyces cerevisiae AR 400 [12, 18]: 50 µg/mL; MIC (μg/mL) Candida lusitaniae AR 398 [13, 18]: 50 µg/mL; MIC (μg/mL) Candida duobushaemulonii AR 392 [14, 18]: 100 µg/mL; MIC (μg/mL) Candida duobushaemulonii AR 391 [15, 18]: 50 µg/mL; MIC (μg/mL) Kodamae ohmeri AR 396 (Kodamae ohmeri AR 396; [18]): > (MIC values reported at the top of the table (above the double line) are based on titrations from 1.56 to 100 μg/mL); MIC (μg/mL) Candida krusei AR 397 (Candida krusei AR 397; [18]): 100 µg/mL
